We go through one compound from US20240139135A1, “[…] TREATMENT OF OPIOID USE DISORDER” (THE TRUSTEES OF INDIANA UNIVERSITY, priority 2019, published 2024).

Series [1] has as its system patients with opioid use disorder (DSM-5 moderate to severe) using opioids for at least three months. The series is described as follows: Medical chart review of a fifteen-patient outpatient neurology cohort whose opioids were replaced with low-dose Lyrica (pregabalin). The series is classed as in vivo, human. The procedure: Summary of Experimental Results: Over the span of several years, the present inventor, who is a practicing neurologist, tested various different drugs at varying doses in an attempt to assist patients in their outpatient general neurological practice with cessation of opioid use. Through extensive experimentation, the physician discovered that 25 mg of Lyrica (pregabalin) T.I.D. successfully replaced opioids in a few of their patients, they subsequently expanded their research to other patients.
The charts for the fifteen (15) patients of this cohort were evaluated to ascertain the date that pregabalin was initiated, and the starting dose; the pregabalin dose as of the last available medical record; concomitant pain/CNS medications and concomitant non-pain/CNS medications; records of opioid use, type of opioid and dose (when available); and the temporal relationship between starting pregabalin and no longer requiring opioids. The medications in patient charts were compared with the accompanying medication list for each patient. As these were medical charts, the review was conducted to the extent that information was available.
Diagnosis of opioid use disorder: As a part of the medical chart review, the investigating physician assessed the fifteen (15) patients against the DSM-5 diagnostic criteria for OUD, defined “ . . . as a problematic pattern of opioid use leading to clinically significant impairment or distress, as manifested by at least two (2) pre-defined symptoms.” These criteria include eleven symptoms or behaviors occurring within a 12-month period. A diagnosis of mild OUD requires the presence of 2-3 symptoms, moderate 4-5 symptoms, and severe 6 or more symptoms. Of the fifteen (15) patients, seven (7) had scores in the moderate range and eight (8) had scores in the severe range.

The test system of series [2] is neuropathic pain. The conditions noted are these: doses of up to 150 mg a day; cited from earlier work.

“Also recorded” adds a separate entry of the source.

For the compound `CC(C)C[C@H](CN)CC(=O)O` [pregabalin, (S)-(+)-3-aminomethyl-5-methyl-hexanoic acid], the “patients for whom opioids were successfully replaced” value in series [1] (25 mg Lyrica (pregabalin) T.I.D., patients had been using opioids for at least three months, cohort of 15) is 15 patients. Further, in series [1] (each of the fifteen patients, low-dose pregabalin), the cravings for opioids entry is listed as “complete cessation of cravings for opioids”. For the same compound, in series [1] (fifteen patients, opioids replaced with low-dose pregabalin), the “side effects or withdrawal symptoms” value is “no reported side effects or withdrawal symptoms; also recorded: none of the fifteen (15) patients experienced side effects or withdrawal symptoms”. For the same compound, the “patients who decreased their opioids temporally related to (after) starting pregabalin” value in series [1] (of fifteen patients) is 2 patients. For the same compound, in series [1] (of fifteen patients, chart review), the “patients who stopped or decreased their opioids temporally related to (after) starting pregabalin” value was no less than 7 patients. Also, the “patients who stopped their opioids temporally related to (after) starting pregabalin” value in series [1] (of fifteen patients, one continued tramadol 50 mg Q.I.D. prn) is listed as 5 patients. Further, the “patients who elected to return to opioids for other reasons” value in series [1] (of the fifteen-patient cohort, also effectively cured of cravings) stood at 2 patients. Besides, in series [1] (of the fifteen-patient cohort, opioids replaced with low doses of Lyrica (pregabalin)), the “remaining patients, none of whom returned to opioids within the observation period” value is recorded as 13 patients. The “patients started on pregabalin who stopped or decreased their use of opioids (total)” value in series [1] (of the patient charts reviewed (fifteen)) is no less than 11 patients. The “patients who stopped their opioids while on pregabalin, relative timing not definitively established” value in series [1] (of the remaining eight patients) is reported as 4 patients. In series [2], the “efficacy for the indicated treatment of neuropathic pain” value is listed as “consistently ineffective”.
